Tested on: hRXR α, β, or γ
Test: Transactivation assay (RARE-Luc dual luciferase reporter in HEK-293 cells), activity relative to LG268
Assay type: cell-based, human
Conditions: compound at 1 µM, 24 h; luciferase activity expressed relative to LG268
Method: HEK-293 cells (ATCC) were seeded one day prior to transfection. For assessing EC50 of activation of RXR isoforms 2 μg of hRXR α, β, or γ (OriGENE, USA) over-expressing vector, 1 μg of plasmid expressing firefly luciferase under RARE element (RARE-Luc) and 25 ng of renilla luciferase vector (QIAGEN, USA) were co-transfected using lipofectamine reagent. Post 24 h of transfection, cells were treated with different concentrations of RXR agonists (100 nM, 300 nM and 1 uM) for 24 h followed by estimation of luciferase activity using Dual Luciferase Reporter Assay System (Promega). Luciferase activity was normalized to that of renilla luciferase. The activities of the RXR compounds were expressed relative to LG268, a known RXR agonist.

With C=C(c1ccc(C(=O)O)cc1)c1sc2c(c1C)C(C)(C)CCC2(C)C [Compound 1, 4-[1-(3,4,4,7,7-Pentamethyl-4,5,6,7-tetrahydro-1-benzothiophen-2-yl)ethenyl]benzoic acid] the “Activity at 1 µM” value was “***** (>1)”.

Cc1c(C2(c3ccc(C(=O)O)cc3)CC2)sc2c1C(C)(C)CCC2(C)C [Compound 2, 4-[1-(3,4,4,7,7-pentamethyl-4,5,6,7-tetrahydro-1-benzothiophen-2-yl)cyclopropyl]benzoic acid] was tested, and the “Activity at 1 µM” value was “***** (>1)”.

For Cc1c(/C(=N/O)c2ccc(C(=O)O)cc2)sc2c1C(C)(C)CCC2(C)C [Compound 3, 4-[(E)-(Hydroxyimino) (3,4,4,7,7-pentamethyl-4,5,6,7-tetrahydro-1-benzothiophen-2-yl)methyl]benzoic acid], the “Activity at 1 µM” value was “***** (>1)”.

In the case of CO/N=C(\c1ccc(C(=O)O)cc1)c1sc2c(c1C)C(C)(C)CCC2(C)C [Compound 4, 4-[(E,Z)-(Methoxyimino) (3,4,4,7,7-pentamethyl-4,5,6,7-tetrahydro-1-benzothiophen-2-yl)methyl]benzoic acid], the “Activity at 1 µM” value is reported as “**** (>0.9 to <1)”.

With Cc1c(C(=O)c2ccc(C(=O)O)cn2)sc2c1C(C)(C)CCC2(C)C [Compound 5, 6-[(3,4,4,7,7-Pentamethyl-4,5,6,7-tetrahydro-1-benzothiophen-2-yl)carbonyl]pyridine-3-carboxylic acid] the “Activity at 1 µM” value was “** (>0.7 and <0.8)”.

In the case of C=C(c1ccc(C(=O)O)cn1)c1sc2c(c1C)C(C)(C)CCC2(C)C [Compound 6, 6-[1-(3,4,4,7,7-Pentamethyl-4,5,6,7-tetrahydro-1-benzothiophen-2-yl)ethenyl]pyridine-3-carboxylic acid], the “Activity at 1 µM” value is reported as “*** (>0.8 and <0.9)”.

For Cc1c(C2(c3ccc(C(=O)O)cn3)CC2)sc2c1C(C)(C)CCC2(C)C [Compound 7, 6-[1-(3,4,4,7,7-Pentamethyl-4,5,6,7-tetrahydro-1-benzothiophen-2-yl)cyclopropyl]pyridine-3-carboxylic acid], the “Activity at 1 µM” value was “***** (>1)”.

For Cc1c(N(C)c2ccc(C(=O)O)cc2)sc2c1C(C)(C)CCC2(C)C [Compound 8, 4-[Methyl(3,4,4,7,7-pentamethyl-4,5,6,7-tetrahydro-1-benzothiophen-2-yl)amino]benzoic acid], the “Activity at 1 µM” value was “***** (>1)”.

With CCN(c1ccc(C(=O)O)cc1)c1sc2c(c1C)C(C)(C)CCC2(C)C [Compound 9, 4-[Ethyl(3,4,4,7,7-pentamethyl-4,5,6,7-tetrahydro-1-benzothiophen-2-yl)amino]benzoic acid] the “Activity at 1 µM” value was “*** (>0.8 and <0.9)”.

Cc1c(N(c2ccc(C(=O)O)cc2)C2CC2)sc2c1C(C)(C)CCC2(C)C [Compound 10, 4-[Cyclopropyl(3,4,4,7,7-pentamethyl-4,5,6,7-tetrahydro-1-benzothiophen-2-yl)amino]benzoic acid] was tested, and the “Activity at 1 µM” value was “***** (>1)”.

For Cc1c(N(CC2CC2)c2ccc(C(=O)O)cc2)sc2c1C(C)(C)CCC2(C)C [Compound 11, 4-[(Cyclopropylmethyl) (3,4,4,7,7-pentamethyl-4,5,6,7-tetrahydro-1-benzothiophen-2-yl)amino]benzoic acid], the “Activity at 1 µM” value was “**** (>0.9 to <1)”.

For Cc1c(N(c2ccc(C(=O)O)cc2)C(C)C)sc2c1C(C)(C)CCC2(C)C [Compound 13, 4-[(3,4,4,7,7-Pentamethyl-4,5,6,7-tetrahydro-1-benzothiophen-2-yl) (propan-2-yl)amino]benzoic acid], the “Activity at 1 µM” value was “** (>0.7 and <0.8)”.

With Cc1c(N(c2ccc(C(=O)O)cc2)S(C)(=O)=O)sc2c1C(C)(C)CCC2(C)C [Compound 14, 4-[(Methylsulfonyl) (3,4,4,7,7-pentamethyl-4,5,6,7-tetrahydro-1-benzothiophen-2-yl)amino]benzoic acid] the “Activity at 1 µM” value was “**** (>0.9 to <1)”.

For COc1ccc(/C=C/C(=O)O)cc1-c1sc2c(c1C)C(C)(C)CCC2(C)C [Compound 15, (2E)-3-[4-Methoxy-3-(3,4,4,7,7-pentamethyl-4,5,6,7-tetrahydro-1-benzothiophen-2-yl)phenyl]prop-2-enoic acid], the “Activity at 1 µM” value was “** (>0.7 and <0.8)”.

COc1ccc(C2CC2C(=O)O)cc1-c1sc2c(c1C)C(C)(C)CCC2(C)C (stereo not shown) [Compound 16, 2-[4-Methoxy-3-(3,4,4,7,7-pentamethyl-4,5,6,7-tetrahydro-1-benzothiophen-2-yl)phenyl]cyclopropanecarboxylic acid] was tested, and the “Activity at 1 µM” value was “* (<0.7)”.

Cc1c(N(C)c2ccc(C(=O)O)cn2)sc2c1C(C)(C)CCC2(C)C [Compound 17, 6-[Methyl(3,4,4,7,7-pentamethyl-4,5,6,7-tetrahydro-1-benzothiophen-2-yl)amino]pyridine-3-carboxylic acid] was tested, and the “Activity at 1 µM” value was “***** (>1)”.

With CCN(c1ccc(C(=O)O)cn1)c1sc2c(c1C)C(C)(C)CCC2(C)C [Compound 18, 6-[Ethyl(3,4,4,7,7-pentamethyl-4,5,6,7-tetrahydro-1-benzothiophen-2-yl)amino]pyridine-3-carboxylic acid] the “Activity at 1 µM” value was “***** (>1)”.

Cc1c(N(c2ccc(C(=O)O)cn2)C2CC2)sc2c1C(C)(C)CCC2(C)C [Compound 19, 6-[Cyclopropyl(3,4,4,7,7-pentamethyl-4,5,6,7-tetrahydro-1-benzothiophen-2-yl)amino]pyridine-3-carboxylic acid] was tested, and the “Activity at 1 µM” value was “***** (>1)”.

For Cc1c(N(CC2CC2)c2ccc(C(=O)O)cn2)sc2c1C(C)(C)CCC2(C)C [Compound 20, 6-[(Cyclopropylmethyl) (3,4,4,7,7-pentamethyl-4,5,6,7-tetrahydro-1-benzothiophen-2-yl)amino]pyridine-3-carboxylic acid], the “Activity at 1 µM” value was “***** (>1)”.

Cc1c(N(c2ccc(C(=O)O)cn2)C(C)C)sc2c1C(C)(C)CCC2(C)C [Compound 21, 6-[(3,4,4,7,7-Pentamethyl-4,5,6,7-tetrahydro-1-benzothiophen-2-yl) (propan-2-yl)amino]pyridine-3-carboxylic acid] was tested, and the “Activity at 1 µM” value was “***** (>1)”.

With Cc1c(N(c2ccc(C(=O)O)cn2)S(C)(=O)=O)sc2c1C(C)(C)CCC2(C)C [Compound 22, 6-[(Methylsulfonyl) (3,4,4,7,7-pentamethyl-4,5,6,7-tetrahydro-1-benzothiophen-2-yl)amino]pyridine-3-carboxylic acid] the “Activity at 1 µM” value was “***** (>1)”.

With Cc1c(N(C)c2ncc(C(=O)O)cn2)sc2c1C(C)(C)CCC2(C)C [Compound 23, 2-[Methyl(3,4,4,7,7-pentamethyl-4,5,6,7-tetrahydro-1-benzothiophen-2-yl)amino]pyrimidine-5-carboxylic acid] the “Activity at 1 µM” value was “*** (>0.8 and <0.9)”.

Cc1c(N(c2ncc(C(=O)O)cn2)C2CC2)sc2c1C(C)(C)CCC2(C)C [Compound 24, 2-[Cyclopropyl(3,4,4,7,7-pentamethyl-4,5,6,7-tetrahydro-1-benzothiophen-2-yl)amino]pyrimidine-5-carboxylic acid] was tested, and the “Activity at 1 µM” value was “*** (>0.8 and <0.9)”.

For Cc1c(NC(=O)c2ccc(C(=O)O)cc2)sc2c1C(C)(C)CCC2(C)C [Compound 25, 4-[(3,4,4,7,7-Pentamethyl-4,5,6,7-tetrahydro-1-benzothiophen-2-yl)carbamoyl]benzoic acid], the “Activity at 1 µM” value was “* (<0.7)”.

In the case of Cc1c(N(C)c2ccc(C(=O)O)cn2)sc2c1C(C)(C)CCC2 [Compound 26, 6-[Methyl(3,4,4-trimethyl-4,5,6,7-tetrahydro-1-benzothiophen-2-yl)amino]pyridine-3-carboxylic acid], the “Activity at 1 µM” value is reported as “* (<0.7)”.

From patent US9862713B2, “Substituted bicyclic heteroaryl compounds as RXR agonists” (CONNEXIOS LIFE SCIENCES PVT. LTD., priority 2014, dated 2018)
